Source: the NIST ThermoML archive (doi:10.1016/j.jct.2005.05.004)

How the values were obtained:
[1] = xn = mol fraction of the nth substance listed; details: 298.15 K, 101.32 kPa, Liquid, Vibrating tube method
[2] = refractive index (Na D-line) (dimensionless); xn = mol fraction of the nth substance listed; details: 298.15 K, 101.32 kPa, Liquid
[3] = 298.15 K; 101.33 kPa; Liquid; Vibrating tube method
[4] = refractive index (Na D-line) (dimensionless); details: 298.15 K; 101.33 kPa; Liquid

CCI [iodoethane] + CCO
Details	mass density, [1] [kg/m3]	refractive index, [2]
x2 = 0.0481	1880.86	1.503
x2 = 0.0942	1839.5	1.4971
x2 = 0.2302	1712.7	1.479
x2 = 0.29	1654.4	1.4701
x2 = 0.3989	1543.6	1.4535
x2 = 0.4889	1447.12	1.442
x2 = 0.6035	1316.7	1.4241
x2 = 0.687	1215.7	1.4093
x2 = 0.7935	1078.8	1.3929
x2 = 0.8994	933.27	1.3761
x2 = 0.9522	856.7	1.3675

CO [methanol]
Details	mass density [kg/m3]	refractive index
[3]	787.98	–
[4]	–	1.3262

Cc1ccccc1 [toluene]
Details	mass density [kg/m3]	refractive index
[3]	862.28	–
[4]	–	1.4938

Cc1ccccc1 [toluene] + CCCO
Details	mass density, [1] [kg/m3]	refractive index, [2]
x1 = 0.0609	805.41	1.3918
x1 = 0.0969	808.53	1.397
x1 = 0.1939	816.4	1.4108
x1 = 0.3036	824.3	1.4249
x1 = 0.3965	830.4	1.4349
x1 = 0.4988	836.58	1.4469
x1 = 0.5524	839.64	1.4509
x1 = 0.5932	841.82	1.4533
x1 = 0.692	847.02	1.466
x1 = 0.77	851.01	1.473
x1 = 0.9274	858.78	1.4873
x1 = 0.9343	859.08	1.488

CCI [iodoethane] + CCCO
Details	mass density, [1] [kg/m3]	refractive index, [2]
x2 = 0.0332	1887.25	1.505
x2 = 0.0469	1872.23	1.503
x2 = 0.0528	1865.57	1.502
x2 = 0.2862	1611.62	1.4688
x2 = 0.3861	1501.9	1.4567
x2 = 0.4714	1407.06	1.447
x2 = 0.5981	1264.7	1.4299
x2 = 0.6984	1150.74	1.418
x2 = 0.7894	1046.25	1.4077
x2 = 0.8728	949.54	1.397
x2 = 0.9101	905.96	1.393

CCCO [propan-1-ol]
Details	mass density [kg/m3]	refractive index
[3]	799.69	–
[4]	–	1.3829

Cc1ccccc1 [toluene] + CCO
Details	mass density, [1] [kg/m3]	refractive index, [2]
x1 = 0.0476	792.25	1.3699
x1 = 0.1205	801.71	1.385
x1 = 0.1948	810	1.3993
x1 = 0.2994	820.14	1.4163
x1 = 0.3992	828.34	1.4311
x1 = 0.4884	834.71	1.443
x1 = 0.5577	839.3	1.4518
x1 = 0.5994	841.81	1.4565
x1 = 0.7159	848.36	1.4682
x1 = 0.7646	850.92	1.4732
x1 = 0.8915	857.06	1.485
x1 = 0.8917	857.09	1.485
